Results taken from US20040166079A1, “N-Lauroyl amino acid composition for slimming the human body” (priority 2003, published 2004).

Tests used:
human recombinant MMP-9 = molecular target: T1, human recombinant MMP-9 (Homo sapiens, UniProt P14780); assay: Measurement of the activity of metalloproteinase MMP-9 (DQ-gelatin fluorescence); type: biochemical; details: incubation concentration 0.0018 % DE; relative to the control
T1 construct: purchased CALBIOCHEM PF024
Procedure: (§1) The objective of this test is to evaluate the inhibitory capacity of a product on the enzymatic activity of MMP-2 and MMP-9. This test is based on an enzymatic reaction between purified MMP-2 or MMP-9 and a specific substrate containing a chromophore. The degradation of the chromogenic substrate by the enzyme leads to the production of fluorescence monitored by fluorimetry.
(i)—A human recombinant MMP-9 (CALBIOCHEM, PF024) is incubated, at 0.05 μg/ml, in the presence of the product and the chromogenic substrate, DQ-gelatin conjugated with fluorescein (MOLECULAR PROBE, D12054) at 10 μg/ml. The reaction mixture is incubated overnight at room temperature, protected from light. The quantity of DQ-gelatin degraded is measured by fluorescence (Ex: 355 nm; Em: 460 nm).
(§2) The reactivity of the enzymatic system is systematically monitored for the measurement of the effect of a metalloproteinase inhibitor, 1,10-phenanthroline. The results are presented in the following table, as a percentage inhibition of the enzymatic activity of MMP-2 and MMP-9 relative to the control.

human recombinant MMP-2 = molecular target: T2, human recombinant MMP-2 (Homo sapiens, UniProt P08253); assay: Measurement of the activity of metalloproteinase MMP-2 (DQ-gelatin fluorescence); type: biochemical; details: incubation concentration 0.0018 % DE; relative to the control
T2 construct: purchased CALBIOCHEM PF023
T2 sequence (P08253 110-660): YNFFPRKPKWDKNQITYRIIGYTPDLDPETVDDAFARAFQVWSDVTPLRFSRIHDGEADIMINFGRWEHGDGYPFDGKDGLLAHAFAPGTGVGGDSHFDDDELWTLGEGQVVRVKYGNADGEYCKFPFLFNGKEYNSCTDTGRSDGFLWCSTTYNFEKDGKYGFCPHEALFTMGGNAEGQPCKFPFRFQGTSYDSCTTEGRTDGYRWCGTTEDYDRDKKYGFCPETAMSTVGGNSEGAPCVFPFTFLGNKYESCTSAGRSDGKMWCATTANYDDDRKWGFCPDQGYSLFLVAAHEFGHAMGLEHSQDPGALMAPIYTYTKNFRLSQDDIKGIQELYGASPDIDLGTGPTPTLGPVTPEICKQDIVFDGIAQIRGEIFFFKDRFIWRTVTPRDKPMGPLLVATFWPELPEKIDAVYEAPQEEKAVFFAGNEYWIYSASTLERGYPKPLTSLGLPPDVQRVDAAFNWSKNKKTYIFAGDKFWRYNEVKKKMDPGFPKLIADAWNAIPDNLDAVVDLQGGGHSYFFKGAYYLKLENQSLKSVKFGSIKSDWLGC
Procedure: as §1
(ii)—A human recombinant MMP-2 (CALBIOCHEM, PF023) is incubated, at 0.1 μg/ml, in the presence of the product and the chromogenic substrate, DQ-gelatin conjugated with fluorescein (MOLECULAR PROBE, D12054) at 10 μg/ml. The reaction mixture is incubated overnight at room temperature, protected from light. The quantity of DQ-gelatin degraded is measured by fluorescence (Ex: 355 nm; Em: 460 nm).
as §2

α2-adrenergic receptors = molecular target: T3, α2-adrenergic receptors (Homo sapiens, UniProt P08913); assay: Involvement of α2-adrenergic receptors in lipolytic activity: fatty acid assay in human adipocytes with brimonidine; type: cell-based
T3 construct: adrenergic receptors found at the surface of the adipocytes; endogenous in cells; host or cells: human adipocytes from subcutaneous abdominal adipose tissue of women
T3 sequence (P08913 1-465): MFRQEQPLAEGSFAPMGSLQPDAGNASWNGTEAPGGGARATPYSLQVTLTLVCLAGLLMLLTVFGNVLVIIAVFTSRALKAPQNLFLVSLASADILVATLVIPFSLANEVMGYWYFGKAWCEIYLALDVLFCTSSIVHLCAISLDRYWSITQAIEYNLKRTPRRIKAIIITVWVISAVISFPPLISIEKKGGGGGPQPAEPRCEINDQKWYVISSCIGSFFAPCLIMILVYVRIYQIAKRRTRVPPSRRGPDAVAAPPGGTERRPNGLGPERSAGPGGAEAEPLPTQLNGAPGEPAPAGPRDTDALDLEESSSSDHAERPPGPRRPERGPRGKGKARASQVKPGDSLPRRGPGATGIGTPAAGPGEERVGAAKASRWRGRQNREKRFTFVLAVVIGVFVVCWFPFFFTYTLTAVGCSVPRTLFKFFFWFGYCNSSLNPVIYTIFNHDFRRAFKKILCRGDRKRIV
Source text: It involves determining, in an “in vitro” model of isolated human adipocytes, the involvement of the α2- and/or β-adrenergic receptors on the lipolytic activity of the test product. Lipolysis is indeed under the control of the adrenergic receptors found at the surface of the adipocytes. Two types of receptors coexist:
A lipolytic product can call into play these receptors either by stimulating the β-adrenergic receptors (agonist), or by inhibiting the α2-adrenergic receptors (antagonist). The method described consists in incubating the product in the presence of human adipocytes in suspension, followed by the measurement of the lipolytic activity by assaying fatty acids. The adipocytes are incubated in the presence of pharmacological agents, α2-adrenergic agonists or β-adrenergic antagonists, known to inhibit lipolysis. The trial consists in studying the effect of the product on the inhibition of lipolysis induced by these pharmacological agents.
The test is carried out using human adipocytes isolated and prepared as a cellular suspension. The adipocytes are isolated from the subcutaneous abdominal adipose tissue recovered during plastic surgery operations (abdominal plastic surgery operations) performed on women. The cells are isolated from fresh tissue. To isolate the cells, the adipose tissue is isolated and dissociated by the action of a collagenase (SIGMA™, 1 mg/ml, 30 minutes at 37° C., gentle stirring). Collagenase digests the connective tissue present in the adipose tissue. […]
The product is incubated with the cells in suspension for two hours at 37° C. (250 μl of product+250 μl of adipocyte suspension). in the presence of an α2-adrenergic agonist: brimonidine at 10^−9 M (concentration previously determined to inhibit basal lipolysis by about 50%), and The supernatant media are collected. […]

[1] = molecular target: T4, hyaluronidase (SIGMA), purified from bovine testicles (Bos taurus, UniProt Q2YDK3); assay: Measurement of the activity of hyaluronidase (purified enzyme); type: biochemical; details: hyaluronidase test, 60 minutes at 37° C.
T4 construct: purified from bovine testicles; purchased SIGMA; host or cells: bovine testicles
T4 sequence (Q2YDK3 36-553): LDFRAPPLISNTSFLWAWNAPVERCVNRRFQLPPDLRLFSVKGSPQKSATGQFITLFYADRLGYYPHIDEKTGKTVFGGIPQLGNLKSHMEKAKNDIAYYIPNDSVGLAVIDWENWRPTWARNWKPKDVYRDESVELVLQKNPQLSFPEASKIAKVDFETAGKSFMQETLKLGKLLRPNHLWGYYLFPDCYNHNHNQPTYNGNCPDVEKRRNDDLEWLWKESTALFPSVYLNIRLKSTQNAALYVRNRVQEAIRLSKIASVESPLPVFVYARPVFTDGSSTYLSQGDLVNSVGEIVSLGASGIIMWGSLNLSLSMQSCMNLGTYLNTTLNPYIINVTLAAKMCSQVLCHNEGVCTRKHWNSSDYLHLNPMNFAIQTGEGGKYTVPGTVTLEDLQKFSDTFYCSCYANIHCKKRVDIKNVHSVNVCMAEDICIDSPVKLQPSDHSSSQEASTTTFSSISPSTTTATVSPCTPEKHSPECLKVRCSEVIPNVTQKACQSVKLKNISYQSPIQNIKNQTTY
Procedure: The objective of this test is to measure the activity of hyaluronidase. This enzyme, which is naturally found in the skin, degrades hyaluronic acid. The study is carried out in vitro on the purified enzyme.
The hyaluronidase (SIGMA), purified from bovine testicles, is incubated at 0.01 U/ml in the presence of hyaluronic acid at 0.02 mg/ml, with or without test product. The incubation is carried out for 60 minutes at 37° C.
Evaluation of the effects: After the incubation, the hyaluronic acid not degraded by the enzyme is precipitated by a 24 mM sodium acetate/79. mM acetic acid mixture (10 minutes, room temperature). The precipitate is measured by spectrophotometry at 590 nm.
The effect of the test products is compared to that observed in the presence of dipotassium glycyrrhizinate, a reference hyaluronidase inhibitor.

β-adrenergic receptors = assay: Involvement of β-adrenergic receptors in lipolytic activity: fatty acid assay in human adipocytes with propranolol; type: cell-based
Procedure: The supernatant media are collected. The nonesterified fatty acids are assayed by spectrophotometry with the aid of a commercial kit in these supernatant media (NEFA C kit, WAKO). The assay is performed against a fatty acid calibration series.
for the inhibition induced by the β-adrenergic antagonist, by the use of a β-adrenergic agonist, isoprenaline.

human adipocytes = assay: Assay of the free fatty acids (lipolytic activity) in isolated human adipocytes in suspension; type: cell-based; details: for Free fatty acid concentration: 2 h at 37° C., mean of five assays
Source text: Hydrolysis of the triglycerides to nonesterified fatty acids and glycerol is called lipolysis. Triglycerides are stored in the adipocytes and constitute the fat reserve. For this reserve to diminish, which is the desired aim when slimming products are used, the triglycerides should be hydrolysed in the form of fatty acids, which in their case can be removed from the cell. Hydrolysis of the triglycerides calls into play a hormone-dependent lipase which must be phosphorylated in order to be active. The phosphorylation step uses a kinase and cAMP. An increase in the cAMP content of the adipocytes is necessary for promoting the activity of the lipase and therefore the lipolysis. The method described consists in incubating the products in the presence of human adipocytes in suspension, followed by […].
The test is carried out using human adipocytes isolated and prepared as a cellular suspension. The adipocytes are isolated from the subcutaneous abdominal adipose tissue recovered during plastic surgery operations (abdominal plastic surgery operations) performed on women. The cells are isolated from fresh tissue. The adipose tissue is isolated and dissociated by the action of a collagenase (SIGMA™, 1 mg/ml, 30 minutes at 37° C., gentle stirring). Collagenase digests the connective tissue present in the adipose tissue. After digestion, the cells are filtered and washed in an appropriate culture medium containing MEM medium free of phenol red, free of glutamine (SIGMA)+2.2 mg/ml of sodium bicarbonate (GIBCO)+50 IU of penicillin (BIOWHITTAKER™)+50 μg/ml of streptomycin (BIOWHITTAKER™)+1% (v/v) of L-glutamine (BIOWHITTAKER™)+0.5% of lipid-free serum albumin (SIGMA™). The adipocyte suspension is used immediately after its preparation.
The test products are diluted in the adipocyte culture medium. They are incubated with the cells in suspension for two hours at 37° C. (250 μl of product+250 μl of adipocyte suspension).
After the incubation, the cell lysis is checked visually by the presence of a lipid layer at the surface of the cellular suspension. The supernatant media are collected. The free fatty acids are assayed by spectrophotometry using a commercial kit (NEFA™ C kit, WAKO), with reference to a fatty acid calibration series. The lypolytic activity of the products is evaluated relative to a control group incubated in the presence of adipocytes and in the absence of product. […] Five assays are performed for each of the test products which are as follows:
This assay is repeated by carrying out new assays at different concentrations.

[2] = incubation concentration 0.0001 wt % DE
[3] = incubation concentration 0.0010 wt % DE

T1 sequence (P14780 107-707 limits assumed): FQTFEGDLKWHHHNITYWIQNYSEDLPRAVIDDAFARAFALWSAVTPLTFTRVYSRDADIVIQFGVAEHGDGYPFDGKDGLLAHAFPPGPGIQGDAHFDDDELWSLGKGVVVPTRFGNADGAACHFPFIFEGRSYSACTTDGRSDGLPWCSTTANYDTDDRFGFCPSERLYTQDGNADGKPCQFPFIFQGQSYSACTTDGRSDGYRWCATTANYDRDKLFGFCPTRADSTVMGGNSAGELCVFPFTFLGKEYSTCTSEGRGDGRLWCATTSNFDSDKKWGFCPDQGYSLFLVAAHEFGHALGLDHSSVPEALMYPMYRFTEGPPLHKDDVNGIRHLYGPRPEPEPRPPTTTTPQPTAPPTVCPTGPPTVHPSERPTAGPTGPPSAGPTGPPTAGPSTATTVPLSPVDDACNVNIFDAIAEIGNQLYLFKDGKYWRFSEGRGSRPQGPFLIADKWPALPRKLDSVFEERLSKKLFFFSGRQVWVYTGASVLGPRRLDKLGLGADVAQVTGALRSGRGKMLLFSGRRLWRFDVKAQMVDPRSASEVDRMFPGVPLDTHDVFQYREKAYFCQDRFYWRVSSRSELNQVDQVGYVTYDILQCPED

## c1cnc2c(c1)ccc1cccnc12 [1,10-Phenanthroline, 1,10-phenanthroline]
Human recombinant MMP-9
  MMP-9 inhibiting effect: 75%
Human recombinant MMP-2
  MMP-2 inhibiting effect: 25%

## Brc1c(NC2=NCCN2)ccc2nccnc12 [Brimonidine, brimonidine]
α2-adrenergic receptors; 10^−9 M, alone
  Assay of the nonesterified fatty acids in the supernatant (% relative to the control): 0%
α2-adrenergic receptors; read-out: inhibition of basal lipolysis
  inhibition at 0.001 µM: ~50%

## CC1(C)[C@@H](O[C@H]2O[C@H](C(=O)[O-])[C@@H](O)[C@H](O)[C@H]2O[C@@H]2O[C@H](C(=O)[O-])[C@@H](O)[C@H](O)[C@H]2O)CC[C@]2(C)[C@H]3C(=O)C=C4[C@@H]5C[C@@](C)(C(=O)O)CC[C@]5(C)CC[C@@]4(C)[C@]3(C)CC[C@@H]12.[K+].[K+] [Di K glycyrrhizinate, dipotassium glycyrrhizinate]
[1]; incubation concentration 0.001 % DE
  Percentage inhibition of hyaluronidase activity: 20%
[1]; incubation concentration 0.1 % DE
  Percentage inhibition of hyaluronidase activity: 45%

## CC(C)NCC(O)c1ccc(O)c(O)c1 (centres unmarked) [Isoprenaline, isoprenaline]
β-adrenergic receptors; 10^−5 M + propanolol 10^−7 M
  Assay of the nonesterified fatty acids in the supernatant (% relative to the control): 170%

## CCCCCCCCCCCC(=O)N(C)CC(=O)O [N-Lauroylsarcosine]
Human adipocytes; [2]
  Free fatty acid concentration: 26.32 ± 0.68 µM
  Lipolytic activity (compared with the control = 100): 228
Human adipocytes; [3]
  Free fatty acid concentration: 28.82 ± 6.11 µM
  Lipolytic activity (compared with the control = 100): 250

## Cc1ccc(N(CC2=NCCN2)c2cccc(O)c2)cc1 [Phentolamine, phentolamine]
α2-adrenergic receptors; 10^−7 M + brimonidine 10^−9 M
  Assay of the nonesterified fatty acids in the supernatant (% relative to the control): 79%

## CC(C)NCC(O)COc1cccc2ccccc12 (centres unmarked) [Propanolol, propranolol]
β-adrenergic receptors; 10^−7 M, alone
  Assay of the nonesterified fatty acids in the supernatant (% relative to the control): 86%
β-adrenergic receptors; at 10^−7 M, concentration previously determined
  inhibition of basal lipolysis: about 50%
